Here are results for one molecule from patent US9919000B2, “Altering cancer cellular functions through proton mopping” (priority 2013, dated 2018).

One series relates to mouse 4T1 breast tumor. As to the kind of experiment: In vivo syngeneic mouse 4T1 breast tumor study. Also on record: species or system Balb/c mice. From the text:
The Purpose: to assess the anti-tumor activity of the existing compound, C12H25NO8, PEGylated amine functionalized glycoside, 2-[2(2-Aminoethoxy)ethoxy]ethyl a-D-mannopyranoside, on a model of mouse 4T1 breast tumor in Balb/C mice.
Animal and Facility: healthy female Balb/c (5-6 weeks old), purchased from Harlan Laboratories, were allowed to acclimate for 3 days in a specific pathogen free animal facility. Animal housing, handling and procedures were followed according to the protocols and guidelines approved by the lab's Institutional Animal Care and Use Committee (IACUC).
In Vivo Syngeneic Tumor Study Design: Murine 4T1 breast tumor cells were kept in RPMI-1640 medium containing 10% FBS and 1% Pen/Strep. On the day of inoculation, the cells were harvested according to standard protocol (Beth Pulaski) and re-suspended in PBS at the cell concentration of 2.5×10^5 cells/ml. Each animal was injected with 0.1 ml of the cell solution into the right flank of Balb/c mice following the SOP. On the 8th day post-inoculation, all tumor volumes were measured and the animals were divided into two groups, control and treated.
Study Design: to deliver a predetermined dose of the compound intravenously for 5 days.
Study Objective: to observe clinically the reduction of the size of the tumors using calipers (our “biomarker”).[FIG. 2]
(§1) Treatment: the tested compound was prepared right before dosing on day 8 after 4T1 inoculation. Each mouse received a predetermined dose of either the compound or saline intravenously daily for 5 consecutive days. The mice tumor volumes and mice body weights were monitored every other day along with other general behavior factors.
(§2) Endpoints: animal was euthanized if one of the following conditions was identified: • its neoplasm reached the predetermined 1000 cubic mms • the animal became moribund • body weight lost more than 20% of its original weight

The nature of series [1]: Tolerability in the 4T1 tumor study (body weight, general behavior). The following applies: intravenous daily dosing for 5 consecutive days, tumor-bearing Balb/c mice. In kind it is in vivo. As for the experimental part:
as §1, §2

Turning to `NCCOCCOCCO[C@H]1OC(CO)[C@@H](O)[C@H](O)C1O` (stereo partly drawn) [compound 5, 1-(2-(2-(2-Aminoethoxy)ethoxy)ethoxy-D-mannopyranoside], the “maximal tumor growth inhibition index (TIC ratio)” value with mouse 4T1 breast tumor (by day 10, intravenously daily for 5 consecutive days from day 8 after 4T1 inoculation, tumor size by calipers) is “around 48%”. In the series on mouse 4T1 breast tumor (during treatment (day 8 to day 12), control tumors doubled every 2-3 days), the “4T1 tumor growth in the treated group” value is “grew slowly”. Besides, the tumor reduction with mouse 4T1 breast tumor (syngeneic mouse breast cancer model, FIG. 1) turned out to be 48%. Also, the “toxic effects / tolerability” value in series [1] is “no toxic effects were observed”.
